Measurements as given in patent US4599346A, “Propan-2-ol derivatives, a process for their production and medicaments containing these compounds” (Ludwig Heumann & Co., GmbH, priority 1983, dated 1986).

How the values were obtained:
[1] = background statement; result in words; cited from earlier work
histamine-H2 -receptors = target: T1, histamine-H2 -receptors (Cavia porcellus, UniProt P47747); assay: H2-antagonistic activity: pA2 values in vitro on the isolated atrium of guinea pigs
T1 construct: in vitro on the isolated atrium of guinea pigs; from tissue; host or cells: isolated atrium of guinea pigs
T1 sequence (P47747 whole entry): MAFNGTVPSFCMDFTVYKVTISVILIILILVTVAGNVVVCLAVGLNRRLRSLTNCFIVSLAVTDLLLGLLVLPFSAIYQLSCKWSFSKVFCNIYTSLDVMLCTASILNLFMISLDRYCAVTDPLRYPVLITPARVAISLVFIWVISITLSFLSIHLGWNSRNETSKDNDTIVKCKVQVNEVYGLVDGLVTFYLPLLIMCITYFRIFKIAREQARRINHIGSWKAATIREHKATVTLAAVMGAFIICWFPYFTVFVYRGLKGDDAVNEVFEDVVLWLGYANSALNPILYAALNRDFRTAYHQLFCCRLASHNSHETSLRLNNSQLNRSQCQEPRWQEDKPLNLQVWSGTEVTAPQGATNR
Text: J. Pharmacol. Chemother.", 27, 427 (1966) and Black et al., "Nature", 236, 385 (1971)].
A recognized method of measuring H2 -antagonistic activity is based on determination of the pA2 -values in vitro on the isolated atrium of guinea pigs

Row | Kb (histamine-H2 -receptors) [nM] | SMILES | half life [1]
1 | – | CN/C(=N/CCSCc1nc[nH]c1C)NC#N [Cimetidine] | relatively short half life
2 | 49 | Nc1n[s+]([O-])nc1NCC(O)COc1cccc(CN2CCCCC2)c1 (stereo not drawn) [Example 1, 4-amino-3-[2-hydroxy-3-[3-(1-piperidinylmethyl)-phenoxy]propyl]-amino-1,2,5-thiadiazole-1-oxide] | –
3 | 72.4 | Nc1c(NCC(O)COc2cccc(CN3CCCCC3)c2)c(=O)c1=O (stereo not drawn) [Example 2, 2-amino-1-[2-hydroxy-3-[3-(1-piperidinylmethyl)-phenoxy]propyl]-aminocyclobut-1-ene-3,4-dione] | –
